Experimental data taken from patent publication US20210187127A1, “CHALLENGE TEST FOR DIAGNOSING A SUBTYPE OF AUTISM SPECTRUM DISEASE” (STALICLA SA, priority 2017, published 2021).
Like-named read-outs stand apart in the source and are kept apart here.

How the values were obtained:
ASD phenotype 1 patients = test: Challenge test with broccoli sprout extract (sulforaphane), behavioral scores; type: in vivo, humans; conditions: selected patient cohort
Description: (§1) The effects of sulforaphane containing Broccoli sprout extract was observed and quantified in 7 individuals suffering from ASD and previously classified as either phenotype 1 or phenotype 2 patients.
The extract was prepared from selected broccoli seeds known to have high yield of sulforaphane which were surface-disinfected and grown (sprouted) for 3 days in a commercial sprouting facility under controlled light and moisture conditions.

ASD phenotype 2 patients = conditions: for CGI-I: after 3 days of administration; for CGI-I / GGI-S: 7-point scale; for Clinical significance / GGI-S: after challenge test; for ADI-R-RI S score / ADI-R-C S score / ADI-R-SI S score: day 3 of challenge test; for ADI-R-SI S score: baseline 16; for ADI-R-C Change (%) / ADI-R-RI Change (%) / ADI-R-SI Change (%): day 3 vs baseline
Description: as §1
We describe a procedure consisting of an evaluation of patients with ASD prior and after administration of broccoli sprout extract. The extract was prepared from selected broccoli seeds known to have high yield of sulforaphane which were surface-disinfected and grown (sprouted) for 3 days in a commercial sprouting facility under controlled light and moisture conditions. A boiling water extract was prepared, filtered, cooled, and treated with the enzyme myrosinase (from daikon sprouts) to convert precursor glucosinolates to isothiocyanates. Behavioral evaluation of patients was performed prior, during and after administration of sulforaphane-containing broccoli sprout extract. Baseline evaluation of patients was performed using standard clinical endpoints (ADI-R subscales ADI-SI, ADI-C and ADI-RI).
Challenge regimen consisted of the administration of a Broccoli Sprout Extract dose corresponding to a total daily dosage of 4 μmol/kg of sulforaphane, administered in 3 doses over the course of the day.
The assessment of baseline scores and post challenge test scores was conducted by two experienced clinicians with extensive experience in conducting ASD clinical assessments, both of which separately rated the patients. In case of diverging scores in test subscales at baseline or after administration of the challenge test, the lowest severity score was retained. Assessment of clinical endpoints was performed at day 3 of administration of challenge test. Behavioral Outcome Measures: (primary efficacy endpoints): ABC, SRS; CGI-S, CGI-I and ADI-R (ADI-SI, ADI-C, ADI-RI).

[1] = Singh K et al., PNAS 2014; cited from earlier work
[2] = test system: lymphoblastoid cell lines of ASD phenotype 1 patients; test: Biolog Phenotype Mammalian MicroArrays, NADH production (redox dye); type: cell-based, human; conditions: cells exposed to the growth factor or cytokine; FIG. 1 (AUC) and Table 1
Description: From all subjects, blood samples were collected and lymphoblastoid cell lines generated. Briefly, tubes containing anticoagulant citrate dextrose (ACD) were used to collect blood samples via venipuncture, in order to ensure that the blood cells remained metabolically active. The tubes were kept at room temperature and processed within 24 hours.
Cell lines were obtained by immortalization of lymphocytes from blood samples using Epstein-Barr virus.
Energy production of cells was measured using commercially available Phenotype Mammalian MicroArrays (PM-Ms, Biolog, Hayward, Calif., USA).
The compound in each well was designed to be used by the cells, either as the sole energy source or as the metabolic effector influencing the utilization of an energy source (α-D-glucose) added in the cell suspension. […] Before plating, cell viability and number were assessed utilizing a BioRad cell counter and a trypan blue dye. The concentration of live cells required for plating was 4×10^5 cells/mL, corresponding to 20,000 cells per well in a volume of 50 μL. […] Cells were incubated for 48 h at 37° C. in 5% CO2, using the modified Biolog IF-M1 medium.
The Biolog IF-M1 medium was modified for plates PM-M1 to M4 by adding the following to 100 mL of Biolog IF-M1: 1.1 mL of 100× penicillin/streptomycin solution, 0.16 mL of 200 mM glutamine (final concentration 0.3 mM), and 5.3 mL of Fetal Bovine Serum (FBS, final concentration 5%). For plates PM-M5 to M8, 5.5 mM α-D-glucose will be added in place of FBS.
During the 48-hour incubation, the only energy source the cells had was the chemical in the well. After this first incubation, Biolog Redox Dye Mix MB was added (10 μL/well) and the plates were incubated under the same conditions for an additional 24 hours. As the cells metabolized the energy source, tetrazolium dye in the media was reduced, producing a purple color according to the amount of NADH generated.
For the last 24 hours of the experiment, the plates were incubated in the Omnilog system, which collects optical density readings every 15 minutes, generating 96 data-points for each well. The system also elaborated the kinetic curve for the metabolic reaction in each well and extrapolated parameters such as slope, highest point, endpoint, area under the curve (AUC), and lag.
At the end of the 24-hour incubation, the plates were analyzed utilizing a microplate reader with readings at 590 and 750 nm. The first value (A590) indicated the highest absorbance peak of the redox dye and the second value (A750) gave a measure of the background noise. The relative absorbance (A590-750) was calculated per well.

[3] = Example 4 Patient 1 (phenotype 2)
[4] = Example 4 Patient 2 (phenotype 2)

For C[S@@+]([O-])CCCCN=C=S [sulforaphane, 1-isothiocyanato-4R-(methylsulfinyl)butane], the “reducing disease severity as measured through the ADI-R, SRS and GGI-S/CGI-I” value (ASD phenotype 1 patients) was “not effective”, the CGI-I (ASD phenotype 2 patients; [3]) was 2 and the Clinical significance (ASD phenotype 2 patients; [3]) was “Very much improved”. The GGI-S (ASD phenotype 2 patients; [3]) was 4, the “ADI-R-RI S score” value (ASD phenotype 2 patients; Example 4 Patient 1 (phenotype 2), baseline 3) was 3 and the “ADI-R-C S score” value (ASD phenotype 2 patients; Example 4 Patient 1 (phenotype 2), baseline 12) was 10. The “ADI-R-SI S score” value (ASD phenotype 2 patients; [3]) was 12, the “ADI-R-C Change (%)” value (ASD phenotype 2 patients; [3]) was −20% and the “ADI-R-RI Change (%)” value (ASD phenotype 2 patients; [3]) was 0%. The “ADI-R-SI Change (%)” value (ASD phenotype 2 patients; [3]) was −33%, the CGI-I (ASD phenotype 2 patients; [4]) was 2 and the Clinical significance (ASD phenotype 2 patients; [4]) was “Very much improved”. The GGI-S (ASD phenotype 2 patients; [4]) was 4, the “ADI-R-RI S score” value (ASD phenotype 2 patients; Example 4 Patient 2 (phenotype 2), baseline 5) was 4 and the “ADI-R-C S score” value (ASD phenotype 2 patients; Example 4 Patient 2 (phenotype 2), baseline 11) was 9. The “ADI-R-SI S score” value (ASD phenotype 2 patients; [4]) was 14, the “ADI-R-C Change (%)” value (ASD phenotype 2 patients; [4]) was −22% and the “ADI-R-RI Change (%)” value (ASD phenotype 2 patients; [4]) was −25%. The “ADI-R-SI Change (%)” value (ASD phenotype 2 patients; [4]) was −14%, the “tolerability of administration to humans” value [1] was “well tolerated” and the toxicity [1] was “low toxicity”.
For “FGF-1(aFGF): growth factor that selectively targets the PI3K-Akt-mTOR pathway”, the “production of NADH in ASD phenotype 1 cells compared to TDs and non-phenotype 1 cells” value [2] was “significantly reduced production of NADH”.
For IGF-I: insulin-like growth factor 1, the “production of NADH in ASD phenotype 1 cells compared to TDs and non-phenotype 1 cells” value [2] was “no significant differences”.
In the case of IL-1beta: Th1 cytokine, the “production of NADH in ASD phenotype 1 cells compared to TDs and non-phenotype 1 cells” value [2] is reported as “significantly lower levels of NADH”.
For IL-6: Th1 cytokine, the “production of NADH in ASD phenotype 1 cells compared to TDs and non-phenotype 1 cells” value [2] was “significantly lower levels of NADH”.
In the case of “PDGF-AB: platelet-derived growth factor AB”, the “production of NADH in ASD phenotype 1 cells compared to TDs and non-phenotype 1 cells” value [2] is reported as “no significant differences”.
With “hGH(Somatotropin): growth factor that selectively targets the PI3K-Akt-mTOR pathway” the “production of NADH in ASD phenotype 1 cells compared to TDs and non-phenotype 1 cells” value [2] was “significantly reduced production of NADH”.
